The target of one experiment is KCNQ-1 (Homo sapiens, UniProt P51787). Nature of the experiment: whole-cell patch-clamp of KCNQ-1 currents in 293T cells. In kind it is cell-based. To be noted: 100 μM (data not shown). From the text:
For recordings of K^+ channel currents, we prepared stable cell lines for TREK-1, TWIK-related acid-sensitive K^+ channel (TASK-1), strongly inwardly rectifying K^+ channel (Kir2.1), and human ether-a-go-go-related gene (HERG-1) channels and transiently expressed other channels in 293T cells using a calcium-phosphate transfection method. For the establishment of the stable lines, we used lentiviral vectors, and the preparation methods for the lentiviral vectors were described in our previous report. TR-1 cells, which stably expressed TREK-1 channel and were grown on a small cover glass (3 × 18 mm), were placed in a recording chamber with an internal volume of 200 μl. Whole-cell currents were recorded in Tyrode solution using an Axopatch 200B amplifier (Axon Instruments, Foster City, CA) at 25°C. Tyrode solution contained (in mM): NaCl 140, KCl 5.4, NaH2PO4 0.33, CaCl2 2, MgCl2 1, HEPES 5, and glucose 5.5 (pH 7.4 adjusted with NaOH). […] Perfusion (100 μl/min) was continued to maintain the water level throughout recordings. pH and osmotic pressure of solutions were measured with a pH meter (Horiba, Kyoto, Japan) and a freezing point osmometer (Knauer, Berlin, Germany), respectively. […]
Background: The patch-clamp technique gives a direct electrical read-out from membranes.

Experiment [1] relates to mice anxiety-like behavior. Kind of experiment: light/dark box test. To be noted: n = 8. In kind it is in vivo. From the text:
Male ICR mice (n = 317 in total) aged 5 weeks and weighing 32 ± 2 g were purchased from Shimizu Laboratory Supplies (Kyoto, Japan). For the social defeat stress test, we used 28 C57BL/6J mice (5 weeks old, Shimizu Laboratory Supplies) and 30 ICR mice (7–8 weeks old, Charles River Labs Japan, Yokohama, Kanagawa, Japan). Mice were maintained for at least 1 week prior to experiments. Animals were kept in groups in plastic cages. They had free access to food and water, and were kept in a 12-h light/dark cycle (08:00–20:00). Experiments were carried out between 10:00 and 18:00 in a quiet and air-conditioned experimental room, in which mice were habituated for at least 30 min before each experiment. Animal experiments were performed in accordance with the guidelines of the Physiological Society of Japan and were approved by the Committees on Animal Experiments at Kansai Medical University and the Kurashiki University of Science and the Arts. Ostruthin was initially dissolved in DMSO at higher concentration (100 mM) and then diluted in phosphate-buffered saline (PBS). The diluted solution was mixed vigorously for more than 10 min before the experiments, and an equal volume of DMSO was added to PBS as a control. PBS and ostruthin were administered intraperitoneally 30 min before mice behavioral tests (0.01 ml/g body weight). Each animal was used only once, except for the wheel running test, which was carried out immediately after elevated plus maze.
The light/dark box consisted of two compartments with a total exterior size of 46 × 27 × 30 cm. One-third of the box was used as a dark compartment, which was covered with a black wall and lid, and the rest of the area was used as a light compartment. These compartments were connected via a small opening (7 × 7 cm), enabling transition between the two compartments. We placed a mouse in the center of the light area and measured the time spent in the light area and the number of transitions between the light and dark compartments for 5 minutes.

In the next experiment the target is T1, TREK-1 channel (Homo sapiens, UniProt O95069).
T1 construct: expressed in transfected cells
T1 sequence (O95069 1-426): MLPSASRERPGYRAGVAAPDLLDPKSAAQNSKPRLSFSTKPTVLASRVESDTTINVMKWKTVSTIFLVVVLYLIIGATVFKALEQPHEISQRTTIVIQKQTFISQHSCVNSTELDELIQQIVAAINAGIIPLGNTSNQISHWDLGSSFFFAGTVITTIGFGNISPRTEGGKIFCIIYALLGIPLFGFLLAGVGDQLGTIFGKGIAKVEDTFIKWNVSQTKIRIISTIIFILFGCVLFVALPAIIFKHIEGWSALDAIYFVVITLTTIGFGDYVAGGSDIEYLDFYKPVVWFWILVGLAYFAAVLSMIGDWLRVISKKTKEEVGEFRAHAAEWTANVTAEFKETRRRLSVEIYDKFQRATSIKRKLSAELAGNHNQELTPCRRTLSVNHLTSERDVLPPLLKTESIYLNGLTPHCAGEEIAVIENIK
Kind of experiment: whole-cell patch-clamp of TREK-1 currents in TR-1 cells (293T stably expressing TREK-1). It is filed as cell-based. The note with it: TR-1 (293T) cells, 25°C, applied 5 min after whole-cell access, n = 5; read-out: EC50 of activation of whole-cell TREK-1 currents. From the text: For recordings of K^+ channel currents, we prepared stable cell lines for TREK-1, TWIK-related acid-sensitive K^+ channel (TASK-1), strongly inwardly rectifying K^+ channel (Kir2.1), and human ether-a-go-go-related gene (HERG-1) channels and transiently expressed other channels in 293T cells using a calcium-phosphate transfection method. For the establishment of the stable lines, we used lentiviral vectors, and the preparation methods for the lentiviral vectors were described in our previous report. TR-1 cells, which stably expressed TREK-1 channel and were grown on a small cover glass (3 × 18 mm), were placed in a recording chamber with an internal volume of 200 μl. Whole-cell currents were recorded in Tyrode solution using an Axopatch 200B amplifier (Axon Instruments, Foster City, CA) at 25°C. […] Perfusion (100 μl/min) was continued to maintain the water level throughout recordings. pH and osmotic pressure of solutions were measured with a pH meter (Horiba, Kyoto, Japan) and a freezing point osmometer (Knauer, Berlin, Germany), respectively.
We previously prepared a lentiviral vector that expressed the TREK-1 channel and using this vector we established a cell line, TR-1, which stably expressed the channel. […] Immediately after whole-cell access, small outward currents were recorded in response to depolarizing step pulses (Fig 1A, 0 min). […]

Where [2] appears, read: i.p. 30 min before test, vs 0 mg/kg.

The text below walks through data of PMC6093650, “Antidepressive and anxiolytic effects of ostruthin, a TREK-1 channel activator” (PLoS ONE, 2018).

Each structure is given as a SMILES string.

As usually defined, the EC50 is the concentration at which the effect is half-maximal.

On to `CC(C)=CCC/C(C)=C/Cc1cc2ccc(=O)oc2cc1O` [ostruthin], for which the “effect on KCNQ-1 channels” value at KCNQ-1 was “no effect”. Also, the “time spent in the light box” value was “decreased” in experiment [1] (20 mg/kg i.p., vs 5 mg/kg) and “significantly increased” in experiment [1] (setting [2]). Besides, the figures for the “number of transitions between the light and dark boxes” value in experiment [1] (highest dose (20 mg/kg) i.p.) and in experiment [1] (setting [2]) were “non-significantly decreased” and “increased”, respectively. The EC50 at TREK-1 channel amounted to 5.3 µM.
